{"source": "paper PMC2952445", "about": "(The journal of pain : official journal of the American Pain …, 2009)", "molecular_target": "mu opioid peptide (MOP) receptor (mouse brain) (Mus musculus, UniProt P42866)", "sequence (P42866 whole entry)": "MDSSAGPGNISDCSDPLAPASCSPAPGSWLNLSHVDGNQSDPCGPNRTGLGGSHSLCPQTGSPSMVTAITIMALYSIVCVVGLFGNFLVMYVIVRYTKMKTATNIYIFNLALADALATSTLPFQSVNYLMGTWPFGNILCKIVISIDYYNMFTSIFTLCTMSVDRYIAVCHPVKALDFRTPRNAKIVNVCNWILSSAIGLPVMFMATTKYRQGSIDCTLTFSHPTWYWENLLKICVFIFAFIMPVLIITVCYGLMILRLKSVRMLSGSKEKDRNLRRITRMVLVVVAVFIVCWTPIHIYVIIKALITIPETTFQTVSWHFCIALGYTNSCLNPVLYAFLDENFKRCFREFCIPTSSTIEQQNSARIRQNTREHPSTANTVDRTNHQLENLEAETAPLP", "data": [{"smiles": "CCC(=O)C(CC(C)N(C)C)(c1ccccc1)c1ccccc1", "note": "(stereo not shown) [methadone]", "values": [{"measurement": "IC50", "value": "11.7 ± 1.2", "unit": "nM"}]}]}
